What was measured:
[1] = biological target: T1, Recombinant IKKα (Homo sapiens, UniProt O15111); experiment: DELFIA IKKα kinase assay (apparent Ki, Cheng-Prusoff); type: biochemical
T1 construct: purchased Millipore, Dundee, UK
T1 sequence (O15111 1-745): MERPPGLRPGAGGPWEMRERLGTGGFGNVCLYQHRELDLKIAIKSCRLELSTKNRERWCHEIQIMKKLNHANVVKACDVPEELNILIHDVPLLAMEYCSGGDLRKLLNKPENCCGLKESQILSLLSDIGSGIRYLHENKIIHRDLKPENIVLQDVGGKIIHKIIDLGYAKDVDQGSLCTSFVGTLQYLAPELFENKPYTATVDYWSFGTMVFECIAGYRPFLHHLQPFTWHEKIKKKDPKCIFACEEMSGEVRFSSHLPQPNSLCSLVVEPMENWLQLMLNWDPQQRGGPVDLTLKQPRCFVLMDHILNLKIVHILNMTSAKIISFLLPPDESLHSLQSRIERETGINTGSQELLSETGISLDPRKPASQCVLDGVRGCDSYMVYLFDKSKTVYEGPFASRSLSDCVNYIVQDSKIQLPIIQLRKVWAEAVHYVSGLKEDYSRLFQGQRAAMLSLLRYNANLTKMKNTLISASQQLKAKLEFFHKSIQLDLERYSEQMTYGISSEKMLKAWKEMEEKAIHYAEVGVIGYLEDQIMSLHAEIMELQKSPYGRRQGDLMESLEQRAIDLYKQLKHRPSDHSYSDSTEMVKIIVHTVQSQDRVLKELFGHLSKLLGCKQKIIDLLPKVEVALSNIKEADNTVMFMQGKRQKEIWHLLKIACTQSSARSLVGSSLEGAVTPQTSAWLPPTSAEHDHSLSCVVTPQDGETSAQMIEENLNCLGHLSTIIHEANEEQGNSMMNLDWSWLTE
Method in brief: (§1)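 Recombinant IKKα or IKKβ (37 nM) with 0.375 μM biotinylated IκB-α (Ser32) peptide and 40 μM ATP in 40 mM Tris-HCl pH 7.5, 20 mM MgCl2, 60 min at 30° C. Phospho-substrate captured on streptavidin and detected by anti-phospho-IκB-α plus europium anti-mouse IgG time-resolved fluorescence; apparent Ki via Cheng-Prusoff.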

[2] = biological target: T2, Recombinant IKKβ (Homo sapiens, UniProt O14920); experiment: DELFIA IKKβ kinase assay (apparent Ki, Cheng-Prusoff); type: biochemical
T2 construct: purchased Millipore, Dundee, UK
T2 sequence (O14920 1-756): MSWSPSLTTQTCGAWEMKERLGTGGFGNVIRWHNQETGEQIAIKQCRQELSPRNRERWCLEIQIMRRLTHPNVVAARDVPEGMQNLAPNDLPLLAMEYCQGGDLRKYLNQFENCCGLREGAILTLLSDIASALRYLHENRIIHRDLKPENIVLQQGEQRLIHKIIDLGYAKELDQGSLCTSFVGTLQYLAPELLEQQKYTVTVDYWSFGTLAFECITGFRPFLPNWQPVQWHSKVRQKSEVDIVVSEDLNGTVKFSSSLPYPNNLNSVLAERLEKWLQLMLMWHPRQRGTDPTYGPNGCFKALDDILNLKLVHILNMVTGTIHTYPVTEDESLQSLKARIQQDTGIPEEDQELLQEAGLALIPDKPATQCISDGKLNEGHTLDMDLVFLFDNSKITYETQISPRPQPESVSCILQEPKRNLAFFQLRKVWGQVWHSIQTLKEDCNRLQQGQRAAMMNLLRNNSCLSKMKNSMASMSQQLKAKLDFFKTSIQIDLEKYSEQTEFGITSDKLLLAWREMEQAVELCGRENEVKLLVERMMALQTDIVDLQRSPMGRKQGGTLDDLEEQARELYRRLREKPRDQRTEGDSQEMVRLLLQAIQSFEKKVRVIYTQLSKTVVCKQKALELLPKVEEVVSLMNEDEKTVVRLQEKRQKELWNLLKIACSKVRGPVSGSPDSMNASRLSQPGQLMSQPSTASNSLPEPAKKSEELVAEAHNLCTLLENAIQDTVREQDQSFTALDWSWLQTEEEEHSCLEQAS
Method in brief: as §1

[3] = non-italicised figure: DELFIA assay
[4] = DELFIA assay (first line of an example)

Compound	Ki [1, 3] [nM]	Ki [2, 3] [nM]	Ki [1, 4] [nM]	Ki [2, 4] [nM]
Nc1n[nH]c2ccc(-c3ccnc(NC(=O)Nc4cccc(F)c4)c3)cc12 [Example 51, 1-(4-(3-Amino-1H-indazol-5-yl)pyridine-2-yl)-3-(3-fluorophenyl)urea]	14	126	–	–
CC(C)C(=O)Nc1cc(-c2cc(C#CC(C)(C)C)c3[nH]nc(N)c3c2)ccn1 [Example 168, N-(4-(3-Amino-7-(3,3-dimethylbut-1-yn-1-yl)-1H-indazol-5-yl)pyridin-2-yl)isobutyramide]	273	2580	–	–
Nc1n[nH]c2ccc(-c3ccnc(NC4CCCCC4)c3)cc12 [Example 18, 5-(2-(Cyclohexylamino)pyridine-4-yl)-1H-indazol-3-amine]	571	> 10000	–	–
Nc1nccc(-c2ccc3[nH]nc(N)c3c2)c1C1CC1 [Example 100, 5-(2-Amino-3-cyclopropylpyridin-4-yl)-1H-indazol-3-amine]	1790	> 10000	–	–
CCNc1cc(-c2ccc3[nH]nc(N)c3c2)ccn1 [Example 12, 5-[2-(Ethylamino)pyridin-4-yl]-1H-indazol-3-amine]	8	38	–	–
Nc1n[nH]c2ccc(-c3ccnc(NC(=O)NCc4cccnc4)c3)cc12 [Example 48, 1-(4-(3-Amino-1H-indazol-5-yl)pyridin-2-yl)-3-(pyridin-3-ylmethyl)urea]	76	840	–	–
CC(C)(C)C#Cc1cc(-c2ccnc(NCCO)c2)cc2c(N)n[nH]c12 [Example 160, 2-((4-(3-Amino-7-(3,3-dimethylbut-1-yn-1-yl)-1H-indazol-5-yl)pyridin-2-yl)amino)ethan-1-ol]	8	1340	–	–
Nc1n[nH]c2ccc(-c3ccnc(NC(=O)c4ccccc4)c3)cc12 [Example 34, N-(4-(3-Amino-1H-indazol-5-yl)pyridin-2-yl)benzamide]	26	350	–	–
Nc1cc(-c2cc(-c3cccs3)c3[nH]nc(N)c3c2)ccn1 [Example 131, 5-(2-Aminopyridin-4-yl)-7-(thiophen-2-yl)-1H-indazol-3-amine]	21	224	–	–
Nc1n[nH]c2ccc(-c3ccnc(NC(=O)Nc4ccc(F)cc4)c3)cc12 [Example 62, 1-(4-(3-Amino-1H-indazol-5-yl)pyridine-2-yl)-3-(4-fluorophenyl)urea]	22	115	–	–
CC(C)(C)C#Cc1cc(-c2ccnc(NC3CC3)c2)cc2c(N)n[nH]c12 [Example 153, 5-(2-(Cyclopropylamino)pyridine-4-yl)-7-(3,3-dimethylbut-1-yn-1-yl)-1H-indazol-3-amine]	4	100	–	–
CC(C)(C)CCc1cc(-c2ccnc(N)c2)cc2c(N)n[nH]c12 [Example 144, 5-(2-Aminopyridin-4-yl)-7-(3,3-dimethylbutyl)-1H-indazol-3-amine]	15	318	–	–
COC(=O)Nc1cc(-c2cc(C#CC(C)(C)OC)c3[nH]nc(N)c3c2)ccn1 [Example 182, Methyl (4-(3-amino-7-(3-methoxy-3-methylbut-1-yn-1-yl)-1H-indazol-5-yl)pyridin-2-yl)carbamate]	34	363	–	–
Nc1cc(-c2cc(C#CC3CCOCC3)c3[nH]nc(N)c3c2)ccn1 [Example 142, 5-(2-Aminopyridin-4-yl)-7-((tetrahydro-2H-pyran-4-yl)ethynyl)-1H-indazol-3-amine]	20	700	–	–
CC(C)CCNC(=O)Nc1cc(-c2ccc3[nH]nc(N)c3c2)ccn1 [Example 38, 1-(4-(3-Amino-1H-indazol-5-yl)pyridin-2-yl)-3-isopentylurea]	100	4200	–	–
Nc1n[nH]c2ccc(-c3ccnc(NC(=O)Nc4cccc(C(=O)Nc5ccccc5)c4)c3)cc12 [Example 61, 3-(3-(4-(3-Amino-1H-indazol-5-yl)pyridine-2-yl)ureido)-N-phenylbenzamide]	171	419	–	–

The next lines start with the values.

Ki [1, 3] [nM]	Ki [2, 3] [nM]	Ki [1, 4] [nM]	Ki [2, 4] [nM]	Compound
–	–	5	285	CC(C)(C)N1CCN(Cc2cc3c(-c4ccc5[nH]nc(N)c5c4)ccnc3[nH]2)CC1 [Example 264, 5-(2-((4-(tert-Butyl)piperazin-1-yl)methyl)-1H-pyrrolo[2,3-b]pyridin-4-yl)-1H-indazol-3-amine]
–	–	66	502	CC(C)(C)C#Cc1cc(-c2ccnc(Nc3c[nH]cn3)c2)cc2c(N)n[nH]c12 [Example 318, 5-(2-((1H-Imidazol-4-yl)amino)pyridin-4-yl)-7-(3,3-dimethylbut-1-yn-1-yl)-1H-indazol-3-amine]
–	–	40	2510	Nc1n[nH]c2c(C#CCCCCN3CCCCC3)cc(-c3ccnc4[nH]ccc34)cc12 [Example 213, 7-(6-(Piperidin-1-yl)hex-1-yn-1-yl)-5-(1H-pyrrolo[2,3-b]pyridin-4-yl)-1H-indazol-3-amine]
–	–	911	≥ 10000	CC(C)(C)C#Cc1cc(-c2ccnc(Nc3nccs3)c2)cc2c(N)n[nH]c12 [Example 314, N-(4-(3-Amino-7-(3,3-dimethylbut-1-yn-1-yl)-1H-indazol-5-yl)pyridin-2-yl)thiazol-2-amine]
–	–	380	> 10000	CC(C)(C)C#Cc1cc(-c2ccnc3[nH]c(CC4CCCCC4)cc23)cc2c(N)n[nH]c12 [Example 278, 5-(2-(Cyclohexylmethyl)-1H-pyrrolo[2,3-b]pyridin-4-yl)-7-(3,3-dimethylbut-1-yn-1-yl)-1H-indazol-3-amine]
–	–	25	70	CC(=O)Nc1cc(-c2cc(-c3ccncc3)c3[nH]nc(N)c3c2)ccn1 [Example 197, N-(4-(3-Amino-7-(pyridin-4-yl)-1H-indazol-5-yl)pyridin-2-yl)acetamide]
–	–	19	594	CC(C)(C)C#Cc1cc(-c2ccnc(Nc3ncco3)c2)cc2c(N)n[nH]c12 [Example 282, N-(4-(3-Amino-7-(3,3-dimethylbut-1-yn-1-yl)-1H-indazol-5-yl)pyridin-2-yl)oxazol-2-amine]
–	–	30	360	CC(C)(C)C#Cc1cc(-c2ccnc3[nH]c(CCN4CCOCC4)cc23)cc2c(N)n[nH]c12 [Example 280, 7-(3,3-Dimethylbut-1-yn-1-yl)-5-(2-(2-morpholinoethyl)-1H-pyrrolo[2,3-b]pyridin-4-yl)-1H-indazol-3-amine]
–	–	19	356	Nc1n[nH]c2c(C#CCCN3CCCCC3)cc(-c3ccnc4[nH]ccc34)cc12 [Example 211, 7-(4-(Piperidin-1-yl)but-1-yn-1-yl)-5-(1H-pyrrolo[2,3-b]pyridin-4-yl)-1H-indazol-3-amine]
–	–	16	81	Nc1n[nH]c2c(C#CCCOc3ccccc3)cc(-c3ccnc4[nH]ccc34)cc12 [Example 216, 7-(4-Phenoxybut-1-yn-1-yl)-5-(1H-pyrrolo[2,3-b]pyridin-4-yl)-1H-indazol-3-amine]
–	–	545	1160	CC(C)(C)C#Cc1cc(-c2ccnc3[nH]c(C4CCCC4)cc23)cc2c(N)n[nH]c12 [Example 295, 5-(2-Cyclopentyl-1H-pyrrolo[2,3-b]pyridin-4-yl)-7-(3,3-dimethylbut-1-yn-1-yl)-1H-indazol-3-amine]
–	–	5	330	Nc1n[nH]c2ccc(-c3ccnc4[nH]c(CNc5ccccc5COc5ccccc5)cc34)cc12 [Example 253, 5-(2-(((2-(Benzyloxy)phenyl)amino)methyl)-1H-pyrrolo[2,3-b]342yridine-4-yl)-1H-indazol-3-amine]

— US20250304576A1 (Cancer Research Technology Limited, priority 2022, published 2025)
